Read-outs that look alike come from different tables or passages of the source.

One data set relates to axillary malodor. Kind of data set: topical treatment of axillary malodor on the skin. The format is in vivo, human. Conditions: for effect against axillary malodors: topical application to armpits, applicants' own experiments; for outcome of treatment of repeated infections: overnight. From the text: Non-prescription azoles sold in groceries are intended for treating feet or vaginal fungal infections. Essentially the same compositions are often sold for feet and vaginal applications under different labels and in different forms. For axillary use, we strongly prefer them as creams.
In our experiments, we treated the armpits, then switched to all new underwear, and rigorously sterilized it with chlorine-based bleaches after every use. […]
A person, low perspiration, axillary malodor since puberty. […] Now uses peroxide bleach all the time.

For data set [1] the following is noted: in vivo.
From the text: (§1) Undecylenic acid, salicylic acid and peroxides suffer from certain disadvantages.
Data set [2] in a line: skin tolerability on armpit application.
From the text: as §1

On to `CN(C/C=C/C#CC(C)(C)C)Cc1cccc2ccccc12` [Terbinafine], for which the “effect against axillary malodors” value with axillary malodor was “some effect”.

For the compound `C=CCCCCCCCCC(=O)O` [Undecylenic acid], the “effect against axillary malodors” value in the data set on axillary malodor is “functional”. For the same compound, in data set [1], the adverse skin effects result is “may cause pain, burning and irritations”.

Turning to `O=C(OOC(=O)c1ccccc1)c1ccccc1` [benzoyl peroxide], in the data set on axillary malodor, the “effect against axillary malodors” value is recorded as “functional”.

`Clc1ccccc1C(c1ccccc1)(c1ccccc1)n1ccnc1` [clotrimazole]: the “time at which the odor disappears” value in the data set on axillary malodor (mature axillary malodor, cream two times a day, two weeks treatment) was “between the fourth and the seventh day”.

Turning to `OO` [hydrogen peroxide], in the data set with axillary malodor, the “effect against axillary malodors” value is listed as “functional”.

Regarding `Clc1ccc(COC(Cn2ccnc2)c2ccc(Cl)cc2Cl)c(Cl)c1` (stereo not shown) [miconazole], the “outcome of treatment of repeated infections” value with axillary malodor (person, two times in a row) is given as “cured”. Further, in the data set on axillary malodor (person, two applications per day, seven days in a row), the “outcome of first treatment of axillary malodor” value is “Successfully treated”.

Take `O=C(O)c1ccccc1O` [salicylic acid]: in the data set on axillary malodor, the “effect against axillary malodors” value was “functional”. Further, the adverse skin effects entry in data set [2] was “may cause pain, burning and irritations”.

Turning to `Clc1ccc(C(Cn2ccnc2)OCc2ccsc2Cl)c(Cl)c1` (stereo not shown) [tioconazole], the “outcome of treatment of repeated infections” value in the data set with axillary malodor (person, one-time treatment) was “cured”. For the same compound, the “effectiveness compared with clotrimazole” value with axillary malodor (vaginal tioconazole product, topical on armpits) is recorded as “much more effective than clotrimazole”.

In the case of `Cc1cccc(N(C)C(=S)Oc2ccc3ccccc3c2)c1` [tolnaftate], the “effect against axillary malodors” value in the data set on axillary malodor is “some effect”.

The values are drawn from US20030161799A1, “Practical and humane method for armpit odor care” (priority 2002, published 2003).
